Test results taken from US20250206732A1, “COMPOUNDS AND METHODS FOR THE TARGETED DEGRADATION OF KRAS” (Arvinas Operations, Inc., priority 2022, published 2025).

Target: T1, AsPC-1 HiBiT-KRASG12D (Homo sapiens, UniProt P01116, G12D)
T1 construct: insert the HiBiT tag onto the N-terminus of one or more of the endogenous KRAS alleles; endogenous in cells; host or cells: AsPC-1 (ATCC CRL-1682), CRISPR-Cas9 knock-in clone, one tagged allele
Experiment: HiBiT degradation assay (G12D), AsPC-1 HiBiT-KRASG12D cells
Format: cell-based
Settings: 24 hours treatment; for Dmax: ASPC1, AsPC-1 HiBiT-KRASG12D cells, maximum degradation observed; for DC50: AsPC-1 HiBiT-KRASG12D cells, HiBiT luminescence
Method in brief: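 Endogenous KRASG12D levels were measured via an N-terminal HiBiT tag knocked into AsPC-1 cells. Cells received compound titrations for 24 hours, and HiBiT luminescence was detected after a 45-minute lytic reagent incubation at room temperature.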

T1 sequence (P01116 1-188 isoform P01116-2 G12D): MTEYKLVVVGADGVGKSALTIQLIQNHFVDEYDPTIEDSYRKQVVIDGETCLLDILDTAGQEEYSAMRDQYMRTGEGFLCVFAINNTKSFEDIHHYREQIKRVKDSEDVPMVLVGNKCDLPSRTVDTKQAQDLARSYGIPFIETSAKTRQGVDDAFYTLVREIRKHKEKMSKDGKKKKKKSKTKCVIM

SMILES	Dmax [%]	DC50 [nM]
CCc1cccc2cc(O)cc(-c3ncc4c(N5CC6CCC(C5)N6)nc(OCCN5CCC(Oc6cc([C@@H](C(=O)N7C[C@H](O)C[C@H]7C(=O)N[C@@H](C)c7ccc(-c8scnc8C)cc7)C(C)C)on6)CC5)nc4c3F)c12 (relative stereo) [Compound 139, (2S,4R)-1-[(2R*)-2-{3-[(1-{2-[(4-{3,8-diazabicyclo[3.2.1]octan-3-yl}-7-(8-ethyl-3-hydroxynaphthalen-1-yl)-8-fluoropyrido[4,3-d]pyrimidin-2-yl)oxy]ethyl}piperidin-4-yl)oxy]-1,2-oxazol-5-yl}-3-methylbutanoyl]-4-hydroxy-N-[(1S)-1-[4-(4-methyl-1,3-thiazol-5-yl)phenyl]ethyl]pyrrolidine-2-carboxamide]	< 20	1000 to 3000
C#Cc1c(F)ccc2cccc(-c3ncc4c(N5CC6CCC(C5)N6)nc(OC[C@@]56CCCN5[C@H](COc5cc([C@@H](C(=O)N7C[C@H](O)C[C@H]7C(=O)N[C@@H](C)c7ccc(-c8scnc8C)cc7)C(C)C)on5)CC6)nc4c3F)c12 [Compound 51, (2S,4R)-1-[(2S)-2-(3-{[(3S,7aS)-7a-{[(4-{3,8-diazabicyclo[3.2.1]octan-3-yl}-7-(8-ethynyl-7-fluoronaphthalen-1-yl)-8-fluoropyrido[4,3-d]pyrimidin-2-yl)oxy]methyl}-hexahydro-1H-pyrrolizin-3-yl]methoxy}-1,2-oxazol-5-yl)-3-methylbutanoyl]-4-hydroxy-N-[(1S)-1-[4-(4-methyl-1,3-thiazol-5-yl)phenyl]ethyl]pyrrolidine-2-carboxamide]	–	> 3000
CCc1cccc2cc(O)cc(-c3ncc4c(N5CC6CCC(C5)N6)nc(O[C@H](C)CN5CCC(COc6cc([C@H](C(=O)N7C[C@H](O)C[C@H]7C(=O)N[C@@H](C)c7ccc(-c8scnc8C)cc7)C(C)C)on6)CC5)nc4c3F)c12 [Compound 101, (2S,4R)-1-[(2R)-2-[3-({1-[(2R)-2-[(4-{3,8-diazabicyclo[3.2.1]octan-3-yl}-7-(8-ethyl-3-hydroxynaphthalen-1-yl)-8-fluoropyrido[4,3-d]pyrimidin-2-yl)oxy]propyl]piperidin-4-yl}methoxy)-1,2-oxazol-5-yl]-3-methylbutanoyl]-4-hydroxy-N-[(1S)-1-[4-(4-methyl-1,3-thiazol-5-yl)phenyl]ethyl]pyrrolidine-2-carboxamide]	60 to 80	< 600
CCc1cccc2cc(O)cc(-c3ncc4c(N5CC6CCC(C5)N6)nc(OCCN5CCC(N(C)c6cc([C@H](C(=O)N7C[C@H](O)C[C@H]7C(=O)N[C@@H](C)c7ccc(-c8scnc8C)cc7)C(C)C)on6)CC5)nc4c3F)c12 (relative stereo) [Compound 135, (2S,4R)-1-[(2R*)-2-{3-[(1-{2-[(4-{3,8-diazabicyclo[3.2.1]octan-3-yl}-7-(8-ethyl-3-hydroxynaphthalen-1-yl)-8-fluoropyrido[4,3-d]pyrimidin-2-yl)oxy]ethyl}piperidin-4-yl)(methyl)amino]-1,2-oxazol-5-yl}-3-methylbutanoyl]-4-hydroxy-N-[(1S)-1-[4-(4-methyl-1,3-thiazol-5-yl)phenyl]ethyl]pyrrolidine-2-carboxamide]	80 to 100	< 600
Cc1ncsc1-c1ccc([C@H](C)NC(=O)[C@@H]2C[C@@H](O)CN2C(=O)[C@@H](c2cc(N3CCN(C(=O)OC[C@@H]4CC[C@@]5(COc6nc(N7CC8CCC(C7)N8)c7cnc(-c8cccc9ccc(F)c(F)c89)c(F)c7n6)CCCN45)CC3)no2)C(C)C)cc1 (relative stereo) [Compound 269, ((3S,7aR)-7a-(((4-((1R,5S)-3,8-diazabicyclo[3.2.1]octan-3-yl)-7-(7,8-difluoronaphthalen-1-yl)-8-fluoropyrido[4,3-d]pyrimidin-2-yl)oxy)methyl)hexahydro-1H-pyrrolizin-3-yl)methyl 4-(5-((R)-1-((2S,4R)-4-hydroxy-2-(((S)-1-(4-(4-methylthiazol-5-yl)phenyl)ethyl)carbamoyl)pyrrolidin-1-yl)-3-methyl-1-oxobutan-2-yl)isoxazol-3-yl) piperazine-1-carboxylate]	60 to 80	< 600
CCc1cccc2cc(O)cc(-c3ncc4c(N5CCCCCC5)nc(OC[C@]56CCCN5[C@H](COC(=O)N5CCN(c7cc([C@H](C(=O)N8C[C@H](O)C[C@H]8C(=O)N[C@@H](C)c8ccc(-c9scnc9C)cc8)C(C)C)on7)CC5)CC6)nc4c3F)c12 (relative stereo) [Compound 278, [(3S,8R)-8-[[4-(azepan-1-yl)-7-(8-ethyl-3-hydroxy-1-naphthyl)-8-fluoro-pyrido[4,3-d]pyrimidin-2-yl]oxymethyl]-1,2,3,5,6,7-hexahydropyrrolizin-3-yl]methyl4-[5-[(1R)-1-[(2S,4R)-4-hydroxy-2-[[(1S)-1-[4-(4-methylthiazol-5-yl)phenyl]ethyl]carbamoyl]pyrrolidine-1-carbonyl]-2-methyl-propyl]isoxazol-3-yl]piperazine-1-carboxylate]	80 to 100	< 600
CCc1cccc2cc(O)cc(-c3ncc4c(N5CC6CCC(C5)N6)nc(OCCN5CCC(O)(CC6CCN(c7cc([C@@H](C(=O)N8C[C@H](O)C[C@H]8C(=O)N[C@@H](C)c8ccc(-c9scnc9C)cc8)C(C)C)on7)CC6)CC5)nc4c3F)c12 [Compound 205, (2S,4R)-1-[(2S)-2-(3-{4-[(1-{2-[(4-{3,8-diazabicyclo[3.2.1]octan-3-yl}-7-(8-ethyl-3-hydroxynaphthalen-1-yl)-8-fluoropyrido[4,3-d]pyrimidin-2-yl)oxy]ethyl}-4-hydroxypiperidin-4-yl)methyl]piperidin-1-yl}-1,2-oxazol-5-yl)-3-methylbutanoyl]-4-hydroxy-N-[(1S)-1-[4-(4-methyl-1,3-thiazol-5-yl)phenyl]ethyl]pyrrolidine-2-carboxamide]	20 to 60	1000 to 3000
C#Cc1c(F)ccc2cc(O)cc(-c3ncc4c(N5CC6CCC(C5)N6)nc(OCCN5CCC6(CC5)CC(Oc5cc([C@H](C(=O)N7C[C@H](O)C[C@H]7C(=O)N[C@@H](C)c7ccc(-c8scnc8C)cc7)C(C)C)on5)C6)nc4c3F)c12 [Compound 161, (2S,4R)-1-[(2R)-2-{3-[(7-{2-[(4-{3,8-diazabicyclo[3.2.1]octan-3-yl}-7-(8-ethynyl-7-fluoro-3-hydroxynaphthalen-1-yl)-8-fluoropyrido[4,3-d]pyrimidin-2-yl)oxy]ethyl}-7-azaspiro[3.5]nonan-2-yl)oxy]-1,2-oxazol-5-yl}-3-methylbutanoyl]-4-hydroxy-N-[(1S)-1-[4-(4-methyl-1,3-thiazol-5-yl)phenyl]ethyl]pyrrolidine-2-carboxamide]	80 to 100	< 600
CCc1cccc2cc(O)cc(-c3ncc4c(N5CC6CCC(C5)N6)nc(OC[C@@]56CCCN5[C@H](COC(=O)N5CCN(c7cc([C@H](C(=O)N8C[C@H](O)C[C@H]8C(=O)N[C@@H](C)c8ccc(-c9scnc9C)cc8)C(C)C)on7)C[C@@H]5C)CC6)nc4c3F)c12 [Compound 325, [(3S,8S)-8-[[4-(3,8-diazabicyclo[3.2.1]octan-3-yl)-7-(8-ethyl-3-hydroxy-1-naphthyl)-8-fluoro-pyrido[4,3-d]pyrimidin-2-yl]oxymethyl]-1,2,3,5,6,7-hexahydropyrrolizin-3-yl]methyl (2S)-4-[5-[(1R)-1-[(2S,4R)-4-hydroxy-2-[[(1S)-1-[4-(4-methylthiazol-5-yl)phenyl]ethyl]carbamoyl]pyrrolidine-1-carbonyl]-isobutyl]isoxazol-3-yl]-2-methyl-piperazine-1-carboxylate]	80 to 100	< 600
CCc1cccc2cc(O)cc(-c3ncc4c(N5CC6CCC(C5)N6)nc(OC[C@]56CCCN5[C@H](COC(=O)N5CCN(c7cc([C@@H](C(=O)N8C[C@H](O)C[C@H]8C(=O)N[C@@H](C)c8ccc(-c9scnc9C)cc8)C(C)C)on7)C[C@H]5C)CC6)nc4c3F)c12 [Compound 125, [(3S,7aR)-7a-{[(4-{3,8-diazabicyclo[3.2.1]octan-3-yl}-7-(8-ethyl-3-hydroxynaphthalen-1-yl)-8-fluoropyrido[4,3-d]pyrimidin-2-yl)oxy]methyl}-hexahydro-1H-pyrrolizin-3-yl]methyl (2R)-4-{5-[(2S)-1-[(2S,4R)-4-hydroxy-2-{[(1S)-1-[4-(4-methyl-1,3-thiazol-5-yl)phenyl]ethyl]carbamoyl}pyrrolidin-1-yl]-3-methyl-1-oxobutan-2-yl]-1,2-oxazol-3-yl}-2-methylpiperazine-1-carboxylate]	20 to 60	600 to 1000
CCc1cccc2cc(O)cc(-c3ncc4c(N5CC6CCC(C5)N6)nc(OC[C@@H]5CC[C@@H](COC(=O)N6CC7(C6)CN(c6cc([C@H](C(=O)N8C[C@H](O)C[C@H]8C(=O)N[C@@H](C)c8ccc(-c9scnc9C)cc8)C(C)C)on6)C7)N5C)nc4c3F)c12 [Compound 213, [(2S,5S)-5-{[(4-{3,8-diazabicyclo[3.2.1]octan-3-yl}-7-(8-ethyl-3-hydroxynaphthalen-1-yl)-8-fluoropyrido[4,3-d]pyrimidin-2-yl)oxy]methyl}-1-methylpyrrolidin-2-yl]methyl 6-{5-[(2R)-1-[(2S,4R)-4-hydroxy-2-{[(1S)-1-[4-(4-methyl-1,3-thiazol-5-yl)phenyl]ethyl]carbamoyl}pyrrolidin-1-yl]-3-methyl-1-oxobutan-2-yl]-1,2-oxazol-3-yl}-2,6-diazaspiro[3.3]heptane-2-carboxylate]	80 to 100	< 600
